US7732475B2, “Histone deacetylase inhibitors” (Takeda San Diego, Inc., priority 2005, dated 2010)

Target: HDAC2 (Homo sapiens, UniProt Q92769)
Assay: HDAC2 fluorescence inhibition assay (tBoc-Lys(Ac)-AMC)

HDAC2, sequence (Q92769 with tags, fused parts or gaps): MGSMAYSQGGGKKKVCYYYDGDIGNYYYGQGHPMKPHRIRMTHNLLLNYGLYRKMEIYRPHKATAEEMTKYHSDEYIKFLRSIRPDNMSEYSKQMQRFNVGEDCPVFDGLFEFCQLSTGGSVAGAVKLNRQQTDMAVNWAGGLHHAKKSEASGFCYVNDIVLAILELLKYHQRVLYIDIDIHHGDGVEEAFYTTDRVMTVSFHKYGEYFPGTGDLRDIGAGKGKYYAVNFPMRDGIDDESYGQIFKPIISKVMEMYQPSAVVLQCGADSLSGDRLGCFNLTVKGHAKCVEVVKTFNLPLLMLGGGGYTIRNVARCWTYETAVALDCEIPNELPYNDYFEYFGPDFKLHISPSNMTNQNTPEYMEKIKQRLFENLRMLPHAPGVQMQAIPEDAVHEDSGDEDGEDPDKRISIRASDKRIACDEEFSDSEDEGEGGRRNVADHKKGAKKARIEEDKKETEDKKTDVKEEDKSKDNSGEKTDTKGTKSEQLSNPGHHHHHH

| SMILES | IC50 |
| --- | --- |
| COc1cc2nn(Cc3ccc(C(=O)Nc4ccccc4N)cc3)cc2cc1O [Example 97, N-(2-aminophenyl)-4-((5-hydroxy-6-methoxy-2H-indazol-2-yl)methyl)benzamide] | 0.05 to 0.1 µM |
| Nc1ccccc1NC(=O)c1ccc(Cn2cc3ccc(F)cc3n2)cc1 [Example 35, N-(2-aminophenyl)-4-((6-fluoro-2H-indazol-2-yl)methyl)benzamide] | 0.05 to 0.1 µM |
| CC(=O)Nc1ccc2c(c1)c(N)nn2Cc1ccc(C(=O)Nc2ccccc2N)cc1 [Example 105, 4-((5-acetamido-3-amino-1H-indazol-1-yl)methyl)-N-(2-aminophenyl)benzamide] | 0.05 to 0.1 µM |
| Nc1ccccc1NC(=O)c1ccc(Cn2ncc3ccccc32)s1 [Example 24, 5-((1H-Indazol-1-yl)methyl)-N-(2-aminophenyl)thiophene-2-carboxamide] | 0.1 to 0.5 µM |
| Cc1cnn(Cc2ccc(C(=O)Nc3ccccc3N)cc2)c1 [Example 34, N-(2-aminophenyl)-4-((4-methyl-1H-pyrazol-1-yl)methyl)benzamide] | 0.1 to 0.5 µM |
| Cc1ccn(Cc2ccc(C(=O)Nc3ccccc3N)cc2)n1 [Example 123, N-(2-aminophenyl)-4-((3-methyl-1H-pyrazol-1-yl)methyl)benzamide] | 0.1 to 0.5 µM |
| CN(C)CCNC(=O)c1cnn(Cc2ccc(C(=O)Nc3ccccc3N)cc2)c1 [Example 140, 1-(4-(2-aminophenylcarbamoyl)benzyl)-N-(2-(dimethylamino)ethyl)-1H-pyrazole-4-carboxamide] | 0.05 to 0.1 µM |
| Nc1ccc2nn(Cc3ccc(C(=O)Nc4ccccc4N)cc3)cc2c1 [Example 9, 4-((5-amino-2H-indazol-2-yl)methyl)-N-(2-aminophenyl)benzamide] | 0.05 to 0.1 µM |
| Nc1ccccc1NC(=O)c1ccc(Cn2ncc3cc(C(F)(F)F)ccc32)cc1 [Example 119, N-(2-aminophenyl)-4-((5-(trifluoromethyl)-1H-indazol-1-yl)methyl)benzamide] | 0.05 to 0.1 µM |
| CCc1nn(Cc2ccc(C(=O)Nc3ccccc3N)cc2)c2ccccc12 [Example 72, N-(2-aminophenyl)-4-((3-ethyl-1H-indazol-1-yl)methyl)benzamide] | 0.05 to 0.1 µM |
| Cc1nn(Cc2ccc(C(=O)Nc3ccccc3N)cc2)c2cc(C(F)(F)F)ccc12 [Example 93, N-(2-aminophenyl)-4-((3-methyl-6-(trifluoromethyl)-1H-indazol-1-yl)methyl)benzamide] | 0.05 to 0.1 µM |
| COc1ccc2cnn(Cc3ccc(C(=O)Nc4ccccc4N)cc3)c2c1 [Example 58, N-(2-aminophenyl)-4-((6-methoxy-1H-indazol-1-yl)methyl)benzamide] | 0.05 to 0.1 µM |
| Cc1ccc2nn(Cc3ccc(C(=O)Nc4ccccc4N)cc3)c(C)c2c1 [Example 81, N-(2-aminophenyl)-4-((3,5-dimethyl-2H-indazol-2-yl)methyl)benzamide] | 0.05 to 0.1 µM |
| Nc1ccccc1NC(=O)c1ccc(Cn2ncc3c(F)cc(F)cc32)cc1 [Example 44, N-(2-aminophenyl)-4-((4,6-difluoro-1H-indazol-1-yl)methyl)benzamide] | 0.05 to 0.1 µM |
| Nc1ccccc1NC(=O)c1ccc(Cn2[nH]c(=O)c3ccccc32)cc1 [Example 64, N-(2-aminophenyl)-4-((3-oxo-2,3-dihydro-1H-indazol-1-yl)methyl)benzamide] | 0.05 to 0.1 µM |
| Nc1ccccc1NC(=O)c1ccc(CNc2n[nH]c3ccccc23)cc1 [Example 30, 4-((1H-indazol-3-ylamino)methyl)-N-(2-aminophenyl)benzamide] | 0.05 to 0.1 µM |
| Nc1ccccc1NC(=O)c1ccc(CCn2cc3ccccc3n2)cc1 [Example 41, 4-(2-(2H-indazol-2-yl)ethyl)-N-(2-aminophenyl)benzamide] | 0.05 to 0.1 µM |
| Nc1ccccc1NC(=O)c1ccc(Cn2cc(C(=O)NCCN3CCOCC3)cn2)cc1 [Example 147, 1-(4-(2-aminophenylcarbamoyl)benzyl)-N-(2-morpholinoethyl)-1H-pyrazole-4-carboxamide] | 0.05 to 0.1 µM |
| Cc1c2ccc(F)cc2nn1Cc1ccc(C(=O)Nc2ccccc2N)cc1 [Example 69, N-(2-aminophenyl)-4-((6-fluoro-3-methyl-2H-indazol-2-yl)methyl)benzamide] | 0.05 to 0.1 µM |
| CC(=O)Nc1ccc2c(C)nn(Cc3ccc(C(=O)Nc4ccccc4N)cc3)c2c1 [Example 87, 4-((6-acetamido-3-methyl-1H-indazol-1-yl)methyl)-N-(2-aminophenyl)benzamide] | 0.05 to 0.1 µM |
| Nc1ccccc1NC(=O)c1ccc(Cn2cc3cccnc3n2)cc1 [Example 25, 4-((2H-Pyrazolo[3,4-b]pyridin-2-yl)methyl)-N-(2-aminophenyl)benzamide] | 0.1 to 0.5 µM |
| COc1cccc2cnn(Cc3ccc(C(=O)Nc4ccccc4N)cc3)c12 [Example 84, N-(2-aminophenyl)-4-((7-methoxy-1H-indazol-1-yl)methyl)benzamide] | 0.1 to 0.5 µM |
| Cc1c2ccc(C(F)(F)F)cc2nn1Cc1ccc(C(=O)Nc2ccccc2N)cc1 [Example 92, N-(2-aminophenyl)-4-((3-methyl-6-(trifluoromethyl)-2H-indazol-2-yl)methyl)benzamide] | 0.05 to 0.1 µM |
| Cc1c2ccccc2nn1Cc1ccc(C(=O)Nc2ccccc2N)cc1 [Example 29, N-(2-Aminophenyl)-4-((3-methyl-2H-indazol-2-yl)methyl)benzamide] | 0.05 to 0.1 µM |
| Nc1ccccc1NC(=O)c1ccc(Cn2cc3cc(C(F)(F)F)ccc3n2)cc1 [Example 120, N-(2-aminophenyl)-4-((5-(trifluoromethyl)-2H-indazol-2-yl)methyl)benzamide] | 0.05 to 0.1 µM |
| CN1CCN(CCCNC(=O)c2cnn(Cc3ccc(C(=O)Nc4ccccc4N)cc3)c2)CC1 [Example 156, 1-(4-(2-aminophenylcarbamoyl)benzyl)-N-(3-(4-methylpiperazin-1-yl)propyl)-1H-pyrazole-4-carboxamide] | 0.05 to 0.1 µM |
| CC(Cn1ncc2ccccc21)c1ccc(C(=O)Nc2ccccc2N)cc1 (stereo not shown) [Example 39, 4-(1-(1H-indazol-1-yl)propan-2-yl)-N-(2-aminophenyl)benzamide] | ≥ 0.5 µM |

Next, values leading:

| IC50 | SMILES |
| --- | --- |
| ≤ 0.05 µM | COCCOC(=O)Nc1ccc2nn(Cc3ccc(C(=O)Nc4ccccc4N)cc3)cc2c1 [Example 11, 2-Methoxyethyl 2-(4-((2-aminophenyl)carbamoyl)benzyl)-2H-indazol-5-ylcarbamate] |
| 0.05 to 0.1 µM | Nc1ccccc1NC(=O)c1ccc(Cn2ncc3cccc(F)c32)cc1 [Example 46, N-(2-aminophenyl)-4-((7-fluoro-1H-indazol-1-yl)methyl)benzamide] |
| 0.05 to 0.1 µM | C[C@@H](c1ccc(C(=O)Nc2ccccc2N)cc1)n1cc2ccccc2n1 [Example 51, (S)-4-(1-(2H-indazol-2-yl)ethyl)-N-(2-aminophenyl)benzamide] |
| ≤ 0.05 µM | COCCOC(=O)Nc1ccc2c(cnn2Cc2ccc(C(=O)Nc3ccccc3N)cc2)c1 [Example 13, 2-Methoxyethyl 1-(4-((2-aminophenyl)carbamoyl)benzyl)-1H-indazol-5-ylcarbamate] |
| 0.05 to 0.1 µM | COc1ccc2c(C)n(Cc3ccc(C(=O)Nc4cc(-c5cccs5)ccc4N)cc3)nc2c1 [Example 116, N-(2-amino-5-(thiophen-2-yl)phenyl)-4-((6-methoxy-3-methyl-2H-indazol-2-yl)methyl)benzamide] |
| ≤ 0.05 µM | COC(=O)Nc1ccc2c(cnn2Cc2ccc(C(=O)Nc3ccccc3N)cc2)c1 [Example 14, Methyl 1-(4-((2-aminophenyl)carbamoyl)benzyl)-1H-indazol-5-ylcarbamate] |
| ≤ 0.05 µM | Cc1nn(Cc2ccc(C(=O)Nc3ccccc3N)cc2)c2cc(O)ccc12 [Example 74, N-(2-aminophenyl)-4-((6-hydroxy-3-methyl-1H-indazol-1-yl)methyl)benzamide] |
| 0.05 to 0.1 µM | CC(c1ccc(C(=O)Nc2ccccc2N)cc1)n1cc2ccccc2n1 (stereo not shown) [Example 109, 4-(1-(2H-indazol-2-yl)ethyl)-N-(2-aminophenyl)benzamide] |
| 0.05 to 0.1 µM | CNC(=O)c1cnn(Cc2ccc(C(=O)Nc3ccccc3N)cc2)c1 [Example 134, 1-(4-(2-aminophenylcarbamoyl)benzyl)-N-methyl-1H-pyrazole-4-carboxamide] |
| ≤ 0.05 µM | CC(=O)Nc1ccc2cn(Cc3ccc(C(=O)Nc4ccccc4N)cc3)nc2c1 [Example 90, 4-((6-acetamido-2H-indazol-2-yl)methyl)-N-(2-aminophenyl)benzamide] |
| ≤ 0.05 µM | COc1ccc2c(C)nn(Cc3ccc(C(=O)Nc4ccccc4N)cc3)c2c1 [Example 66, N-(2-aminophenyl)-4-((6-methoxy-3-methyl-1H-indazol-1-yl)methyl)benzamide] |
| ≤ 0.05 µM | Nc1ccccc1NC(=O)c1ccc(Cn2cc3ccc(C(F)(F)F)cc3n2)cc1 [Example 121, N-(2-aminophenyl)-4-((6-(trifluoromethyl)-2H-indazol-2-yl)methyl)benzamide] |
| ≤ 0.05 µM | CC(=O)Nc1ccc2nn(Cc3ccc(C(=O)Nc4ccccc4N)cc3)c(C)c2c1 [Example 106, 4-((5-acetamido-3-methyl-2H-indazol-2-yl)methyl)-N-(2-aminophenyl)benzamide] |
| ≤ 0.05 µM | COc1cccc2nn(Cc3ccc(C(=O)Nc4ccccc4N)cc3)cc12 [Example 83, N-(2-aminophenyl)-4-((4-methoxy-2H-indazol-2-yl)methyl)benzamide] |
| ≤ 0.05 µM | Nc1ccccc1NC(=O)c1ccc(Cn2nc3ccccc3c2Cl)cc1 [Example 61, N-(2-aminophenyl)-4-((3-chloro-2H-indazol-2-yl)methyl)benzamide] |
| ≤ 0.05 µM | Nc1ccccc1NC(=O)c1ccc(Cn2nc3ccc(C(F)(F)F)cc3c2N)cc1 [Example 62, 4-((3-amino-5-(trifluoromethyl)-2H-indazol-2-yl)methyl)-N-(2-aminophenyl)benzamide] |
| ≤ 0.05 µM | Nc1ccc(-c2ccccc2)cc1NC(=O)c1ccc(Cn2cc3cc([N+](=O)[O-])ccc3n2)cc1 [Example 17, N-(4-Amino-biphenyl-3-yl)-4-(5-nitro-indazol-2-ylmethyl)-benzamide] |
| ≤ 0.05 µM | COc1cc2cn(Cc3ccc(C(=O)Nc4ccccc4N)cc3)nc2cc1OC [Example 98, N-(2-aminophenyl)-4-((5,6-dimethoxy-2H-indazol-2-yl)methyl)benzamide] |
| ≤ 0.05 µM | Nc1ccc(-c2ccccc2)cc1NC(=O)c1ccc(Cn2cc3cccnc3n2)cc1 [Example 26, N-(4-Amino-biphenyl-3-yl)-4-pyrazolo[3,4-b]pyridin-2-ylmethyl-benzamide] |
